The conditions of data set [1]: cited from earlier work; for % Eutectic Concentration (wt./wt.) / Eutectic Temp.: solute in water; for Eutectic Concentration: Table 1, salts used to induce eutectic crystallization.
A short description of data set [2]: Onset temperature of eutectic solidification of AT-1 cell suspension media by DSC. The following applies: AT-1 cell suspension medium. The data set is classed as physicochemical. The method, then: Controlled cooling and thawing rate were achieved by the DSC and directional solidification stage. Unless otherwise mentioned, cooling and thawing rates were 5° C./min.
The onset temperature of the eutectic solidification was measured using the DSC, as described herein. Generally speaking, the viability of the AT-1 cells in the suspension solutions decreased with end temperature regardless of the media used. Note that the temperatures of noticeable viability drop to coincide with the eutectic crystallization temperatures of each suspension media. When the viability of the AT-1 cell suspension in the 1×NaCl (the onset of eutectic crystallization at about […]) is compared with that of KCl infused AT-1 cell suspension (the onset of eutectic crystallization at about −21° C.), there is 70% less viability at −30° C. in the KCl infused AT-1 cell suspension.

Data set [3] concerns AT-1 rat prostate tumor cells. Nature of the data set: Post-thaw viability of AT-1 cell suspensions in various media on the directional solidification stage (Hoechst/Propidium Iodide membrane integrity assay). The data set is classed as cell-based. The following applies: end temperature −30° C., 5° C./minute. The method, then: (§1) In freezing experiments with cell suspensions, a half eutectic concentration solution was mixed with cell culture media (Dulbecco's Modified Eagle's Medium/F-12) in 1 (salt solution): 2 (culture media) volume ratio.
AT-1 rat prostate tumor cells were cultured in vitro under standard tissue culture conditions, as are known. AT-1 cells were suspended in each eutectic changing solution, and kept at about 4° C.
Cultured AT-1 cells were separated from a culture flask by immersion in 0.05% (by volume) trypsin and 0.53 mM EDTA, and then suspended in 5% (by volume) fetal bovine serum (FBS)-supplemented medium such that the final trypsin concentration was <0.005% (by volume). After the separation, the cells were pelleted by centrifugation and the excess medium was removed. […]
Post-thaw viabilities of AT-1 cell suspensions in various media were assessed for varying end temperature of the freezing and thawing protocol on the directional solidification stage. […]
The concentrations of these solutions were determined so that the use of these solutions would not result in excessive killing of the AT-1 cells due to high osmotic pressure. […]
Viability of the AT-1 cell suspensions was measured by a membrane integrity assay using Hoechst and Propidium Iodide. […] After incubation, viability was assessed under a fluorescent microscope by scoring more than 200 cells for each sample.

Another data set has as its system AT-1 tumor tissues. Nature of the data set: Histology of AT-1 tumor tissues 2 days after freezing experiments on the directional solidification stage. Set-up: species or system rat. The following applies: frozen to −20° C., 400×. The method, then: FIGS. 7A-7F show images of histology preparations of AT-1 tumor tissues 2 days after the freezing experiments on the directional solidification stage. Control tissues are very similar in all cases (FIGS. 7A, 7C, and 7E). Some cytoplasmic retraction is seen after salt infusion in FIGS. 7C and 7E over the control sample (FIG. 7A), but overall viability appears high. After freezing the samples to −20° C., a reduction in the number and quality of nuclei in all frozen samples is noted (FIGS. 7B, 7D, and 7F). Nuclear changes include darkening, reduction in size of chromatin, pykonsis and in some cases loss of nuclear material. In addition, cell membranes in frozen salt infused samples are indistinct and difficult to identify. All of these changes appear accentuated in the KNO3 and KCl infused samples.

The test system of data set [4] is AT-1 rat prostate tumor cells. Nature of the data set: Post-thaw viability with half eutectic concentration KNO3 solution (Example 4). Type of data set: cell-based. The method, then:
as §1
AT-1 rat prostate tumor cells were cultured in vitro, as described above. Cultured AT-1 cells were separated from a culture flask by immersion in 0.05% (by volume) trypsin and 0.53 mM EDTA, and then suspended in 5% (by volume) fetal bovine serum (FBS)-supplemented medium such that the final trypsin concentration was <0.005% (by volume). After the separation, the cells were pelleted by centrifugation and the excess medium was removed. The cell pellet was re-suspended into various aqueous solutions (about 1.0 ml) before experiments and nominal cell concentration was about 2×10^6 cells/ml. The suspensions were stored in 1.5 ml microcentrifuge tube on ice (about 4° C.).
Liver tissues were also isolated from the rats.
The directional solidification stage, as described above, was used in the experiments. Controlled cooling and thawing rate were achieved by the DSC and directional solidification stage. Unless otherwise mentioned, cooling and thawing rates were 50° C./min.
For the directional solidification stage, fast thawing rates (about 200° C./min) were employed. […]
Post-thaw viabilities of AT-1 cell suspensions in various media were assessed. […]

For the molecule `[Ca+2].[Cl-].[Cl-]` [CaCl2], in data set [1], the “% Eutectic Concentration (wt./wt.)” value is listed as 29.8 % (wt./wt.) and the “Eutectic Temp.” value was −55 °C.
Regarding `[Br-].[K+]` [KBr], the “Eutectic Temp.” value in data set [1] was −13.0 °C.
Take `[Cl-].[K+]` [KCl, potassium chloride]: the “onset of eutectic crystallization” value in data set [2] was “about −21 °C”. Further, the “less viability than AT-1 cell suspension in 1×NaCl” value in data set [3] worked out at 70%. Further, in the data set on AT-1 tumor tissues, the “histological changes after freezing (nuclei, cell membranes)” value was “accentuated”. In data set [1], the “Eutectic Concentration” value is recorded as 19.7 % wt./wt, the “% Eutectic Concentration (wt./wt.)” value is reported as 19.7% (wt./wt.) and the “Eutectic Temp.” value is −11.1 °C.
Take `O=[N+]([O-])[O-].[K+]` [KNO3, potassium nitrate]: the “histological changes after freezing (nuclei, cell membranes)” value with AT-1 tumor tissues is given as “accentuated”. The post-thaw viability in data set [4] (frozen to about −20° C.) was 15.2±7.1%. Further, in data set [4] (no freeze/thaw procedure), the “viability of control samples” value is 92.1%. Besides, in data set [1], the “Eutectic Concentration” value is on record as 10.9 % wt./wt, the “% Eutectic Concentration (wt./wt.)” value was 10.9% (wt./wt.) and the “Eutectic Temp.” value is −2.9 °C.
For `[Cl-].[Cl-].[Mg+2]` [MgCl2], in data set [1], the “% Eutectic Concentration (wt./wt.)” value is reported as 21.6 % (wt./wt.) and the “Eutectic Temp.” value is −33.6 °C.
For `O=S(=O)([O-])[O-].[Mg+2]` [MgSO4], in data set [1], the “% Eutectic Concentration (wt./wt.)” value is reported as 19.0% (wt./wt.) and the “Eutectic Temp.” value was −3.9 °C.
In the case of `Cl.N` [NH4Cl], in data set [1], the “% Eutectic Concentration (wt./wt.)” value was 18.6 % (wt./wt.) and the “Eutectic Temp.” value was −15.8 °C.
As for `[Cl-].[Na+]` [NaCl, sodium chloride], in data set [1], the “Eutectic Concentration” value is 23.6 % wt./wt, the “% Eutectic Concentration (wt./wt.)” value was 23.6% (wt./wt.) and the “Eutectic Temp.” value is −21.8 °C. Further, the “eutectic point of the solution” value in data set [1] (thermodynamic equilibrium) was “approximately −21.1 °C”.
With `OC[C@H]1O[C@@](CO)(O[C@H]2O[C@H](CO)[C@@H](O)[C@H](O)[C@H]2O)[C@@H](O)[C@@H]1O` [Sucrose], in data set [1], the “% Eutectic Concentration (wt./wt.)” value is given as 62.5 % (wt./wt.) and the “Eutectic Temp.” value is −13.5 °C.

These data come from US20060122588A1, “Cryosurgery compositions and methods” (Regents of the University of Minnesota, priority 2002, published 2006).
